Results published in patent US11911382B2, “Method for treating pulmonary arterial hypertension and associated pulmonary arterial hypertension” (Altavant Sciences GmbH, priority 2018, dated 2024).

Columns and labels:
[1] = stability of crystalline polymorphs; assay type: physicochemical; settings: particularly at temperatures of less than 95° C.
Text: The above-referenced compound can be used to prevent or treat PAH/APAH in either an amorphous or crystalline form. Two different polymorph crystalline forms are identified by x-ray powder diffraction patterns set forth in FIG. 1 (Form 3) and FIG. 2 (Form 1) as well as Tables 1 and 2 (Form 3) and Tables 3 and 4 (Form 1).

[2] = tested on: serotonin biosynthesis; assay: serotonin biomarkers in rat (serum serotonin, urinary 5-HIAA); assay type: in vivo; settings: 30 to 300 mg/kg/day, dose-dependent
Procedure: RVT-1201 (30 to 300 mg/kg/day) may yield a dose-dependent reduction in rat serum serotonin (−27% to −96%) and 24 h urinary output of 5-HIAA (−45% to −56%). HIAA is a metabolite that reflects total serotonin biosynthesis.

[3] = tested on: PAH, monocrotaline prevention model; assay: monocrotaline prevention model of PAH; assay type: in vivo; settings: rat, oral RVT-1201 100 mg/kg/day
[4] = tested on: 5-HIAA; assay: plasma 5-HIAA in healthy human subjects; assay type: in vivo; settings: 400 mg BID, Day 1 to Day 14
Procedure: (§1) Mean change in plasma 5-HIAA may be about −53% from Day 1 to Day 14, whereas placebo may be about +26%. Interpolation of KAR5417 AUC between 400 mg and 800 mg BID regimens may show 500-600 mg BID in humans will achieve the target exposure associated with efficacy in rat models.

[5] = tested on: established PAH, SUGEN-hypoxia treatment model; assay: SUGEN-hypoxia treatment model for established PAH; assay type: in vivo; settings: rat, oral RVT-1201 100 mg/kg/day
[6] = molecular target: T1, TPH1 (Mus musculus, UniProt P17532); settings: amorphous form; cited from earlier work
T1 construct: from tissue; host or cells: live mice (in vivo)
T1 sequence (P17532 1-447): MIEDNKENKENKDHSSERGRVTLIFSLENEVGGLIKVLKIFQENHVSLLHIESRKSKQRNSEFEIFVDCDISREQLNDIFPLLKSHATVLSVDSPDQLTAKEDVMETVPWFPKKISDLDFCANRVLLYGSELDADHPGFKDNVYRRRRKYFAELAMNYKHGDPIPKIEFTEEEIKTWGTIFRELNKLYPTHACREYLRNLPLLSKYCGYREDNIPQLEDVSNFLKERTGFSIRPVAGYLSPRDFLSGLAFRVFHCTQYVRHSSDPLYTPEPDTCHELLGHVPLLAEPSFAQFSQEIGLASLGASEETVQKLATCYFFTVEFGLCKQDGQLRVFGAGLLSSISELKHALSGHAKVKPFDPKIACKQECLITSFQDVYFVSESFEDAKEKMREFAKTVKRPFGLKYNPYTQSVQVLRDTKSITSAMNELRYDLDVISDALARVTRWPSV

[7] = safety and tolerability in healthy human subjects; assay type: in vivo; settings: doses required to achieve clinically-relevant AUC
Procedure: (§2) Healthy human subjects (n=˜120) may receive RVT-1201.
as §1

[8] = tested on: serotonin biomarkers; assay: divided dose studies in rats; assay type: in vivo, rat
[9] = pharmacokinetics in healthy human subjects; assay type: in vivo; settings: humans, interpolation of KAR5417 AUC between 400 mg and 800 mg BID regimens
Procedure: as §2, §1

Structure (SMILES)	stability and shelf life compared to crystalline Form 1 polymorph [1]	reduction in 24 h urinary output of 5-HIAA [2]	reduction in rat serum serotonin [2]	effect on PAH [3]	mean change in plasma 5-HIAA [4]	effect on PAH [5]	efficacy in inhibiting TPH1 in mice [6]	tolerability [7]	once daily administration versus BID or TID regimens [8]	serotonin reduction ([8]; 75 mg/kg/day, divided dose studies) [%]	BID dose achieving target exposure associated with efficacy in rat models [9] [mg]
CCOC(=O)[C@@H]1CC2(CCN(c3cc(O[C@H](c4ccc(Cl)cc4-c4ccccc4)C(F)(F)F)nc(N)n3)CC2)CN1 [crystalline Form 3, (S)-ethyl 8-(2-amino-6-((R)-1-(5-chloro-[1,1′-biphenyl]-2-yl)-2,2,2-trifluoroethoxy)pyrimidin-4-yl)-2,8-diazaspiro[4.5]decane-3-carboxylate]	substantially greater stability and shelf life	–	–	–	–	–	–	–	–	–	–
CCOC(=O)[C@@H]1CC2(CCN(c3cc(O[C@H](c4ccc(Cl)cc4-c4ccccc4)C(F)(F)F)nc(N)n3)CC2)CN1 [RVT-1201, (S)-ethyl 8-(2-amino-6-((R)-1-(5-chloro-[1,1′-biphenyl]-2-yl)-2,2,2-trifluoroethoxy)pyrimidin-4-yl)-2,8-diazaspiro[4.5]decane-3-carboxylate]	–	−45% to −56%	−27% to −96%	block or ameliorate PAH	about −53%	block or ameliorate PAH	demonstrated	well tolerated	comparable to BID or TID regimens	~65	500 to 600
